Like-named read-outs stand apart in the source and are kept apart here. Marks after values point to notes of the source that are not given here.
Experiments:
Murine hepatoma H22 = assay: Anti-tumor and anti-angiogenesis effects on H22 tumor-bearing mice; assay type: in vivo, mouse; details: for IR (%) of tumor growth / Carmine contents / VI (vascular index, mg carmine red per g tumor tissue): H22 mice; for Carmine contents / VI (vascular index, mg carmine red per g tumor tissue): mean ± s; for Inhibition against angiogenesis in H22 tumor (in words) / Inhibition against the growth of mouse hepatoma H22 (in words): ig, tested doses 0.65-1.35 mmol/kg
From the text: 1) Animals: Kunming mice of clean grade, half male and half female, body weight 20±2 g, were purchased from the experimental animal center of Henan Province, China. Qualified Certificate number: SCXK (Yu) 2005-0001.
2) Cells: Murine hepatoma H22 cells were presently obtained from Henan Academy of Medical and Pharmaceutical Sciences (Zhengzhou, China).
Cyclophosphamide (Cyc) was produced by Tianjin Jingshi Pharmaceutical Co., Ltd., China (approval number of medicine: H12021006). Gelatin and carmine red were supplied by Sigma Chemical (St. Louis, Mo., U.S.A). All other chemicals and reagents were of the highest commercial grade available. All drugs were prepared with normal saline emulsified with Tween-80 (0.1% v/v) and dispersed in carboxymethylcellulose (0.5% v/v). 10% (W/V) carmine solution was prepared with salt solution containing 5% (W/V) gelatin which should be used immediately after preparation. The rest of medicines and reagents and the methods for preparation were the same with that of EXAMPLE 1.
4) Method: The H22 cells after in vivo passage for 7 d were diluted with physiological saline to adjust to a concentration of 1×10^7/mL, injected to the armpit of right forelimb of mice subcutaneously (0.2 ml/mouse), then mice were divided into 10 groups (n=12; 6 male and 6 female per group) randomly. 24 h later each group of mice was administrated intragastrically (ig; 0.2 ml/10 g) once a day continuously for 7 d with vehicle (tumor control group and control group), Cyc (standard control), or compounds at the tested doses. After the last drug administration and a following fasting of 8 h, each mouse was anesthetized with 1% pentobarbital in normal saline solution (80 mg/kg; ip). Mice of control group were injected with 5% gelatin in normal saline solution (40) via the tail vein (1 ml/mouse); whereas mice of other groups were injected replaced by 10% carmine red and 5% gelatin in normal saline solution (40). Mice were killed, then freezed in a refrigerator at −20 for 2 h to solidify. Tumors were segregated, weighed and homogenized with 3 M NaOH solution (10 ml/g tumor). The homogenate supernatant was prepared by being centrifuged for 20 min at 14000 rpm, and the absorbance at 490 nm was assayed using a PowerWaveX Microplate Scanning Spectrophotometer (Bio-tek Instruments, Inc). The carmine red content was calculated based on the standard curve. The vascular index (VI) expressed as milligram of carmine red per gram of tumor tissue. The inhibition ratio (IR) of tumor growth was calculated using the formula: IR (%)=[(Wc−Wt)/Wc]×100%, where Wc is the average tumor weight of the control group, and Wt is that of the drug treatment group. Data were expressed as mean±SD and statistical analysis was performed by SPSS Statistics 17.0 using a one-way analysis of variance (ANOVA) followed by unpaired t-test. A value of P<0.05 was considered statistically significant.

mice = assay: Acute oral toxicity test, maximum limit method; assay type: in vivo; details: single dose 5.00 g/kg intragastric, 14 d observation; for Deaths: 10 animals
Experimental: (§1) 1) Animals: Be the same with that of EXAMPLE 4.
3) Method: 20 mice weighing 20±2 g, half male and half female, were divided into 2 groups (n=10) randomly. Animals were administrated with compound 2 or compound 3 at a dose of 5.00 g/kg by intragastric administration after 12 h of fasting (drinking freely). Weigh the mice, observe and record the performance of animals once a day continuously for 14 d.

S180 murine sarcoma = assay: Growth, invasion and metastasis of S180 sarcoma in tumor-bearing mice; assay type: in vivo, mouse; details: for Average invasion and metastasis grade: S180, grades 0-4; for Mouse Number Grade 0 / Mouse Number Grade 1 / Mouse Number Grade 2 / Mouse Number Grade 3 / Mouse Number Grade 4: S180 invasion; for Mouse Number Grade 0: Grade 0: no invasion; for Mouse Number Grade 1: Grade 1: invasion to right forelimb; for Mouse Number Grade 2: Grade 2: right forelimb and the left side of body; for Mouse Number Grade 3: Grade 3: also the ribs and muscles in chest; for Mouse Number Grade 4: Grade 4: invasion into chest or abdominal cavity; for In vivo antitumor effect on S180 compared with parent compound (in words) / Inhibitory effect on invasion and metastasis of S180 tumor tissues (in words): ig, tested doses
Experimental: as §1
2) Cells: The S180 murine sarcoma cells were obtained from Henan Academy of Medical and Pharmaceutical Sciences (Zhengzhou, China).
4) Method: Mice were randomly divided into 10 groups (n=12). The S180 cells after in vivo passage for 7 d were diluted with physiological saline to adjust to a concentration of 1×10^7/mL. The inoculation of tumor cells was conducted in two batches, those of tumor control group I and groups treated with compounds 1 or 3 were in batch 1, those of tumor control group II, Cyc group and the compound 2 groups were in batch 2. The mice were injected with S180 cells (0.2 ml/mouse) into the armpit of right forelimb subcutaneously, and 24 h later each group of mice was administrated intragastrically (ig; 0.2 ml/10 g) once a day continuously for 9 d with vehicle (tumor control group), Cyc (standard control), or compounds at the tested doses. On day 10, kill the mice, observe and record the degree of invasion and metastasis of tumor tissues, then the tumor tissues were segregated and weighed. The inhibition ratio (IR) of tumor growth was calculated by the following formula: IR (%)=[(Wc−Wt)/Wc]×100%, where Wc is the average tumor weight of the control group, and Wt is that of the treatment group. Data were expressed as mean±SD and statistical analysis was performed by SPSS Statistics 17.0 using a one-way analysis of variance (ANOVA) followed by unpaired t-test. A value of P<0.05 was considered statistically significant.

IL-1β = assay type: in vivo, mouse; details: C57BL/6 mice, mean ± s, n = 5
[1] = 1.10 mmol/kg (1.10 mmol/g [sic])

Row | SMILES | IR (%) of tumor growth (Murine hepatoma H22; 0.65 mmol/kg ig once a day 7 d) | Carmine contents (Murine hepatoma H22; 0.65 mmol/kg ig once a day 7 d) | VI (vascular index, mg carmine red per g tumor tissue) (Murine hepatoma H22; 0.65 mmol/kg ig once a day 7 d) | IR (%) of tumor growth (Murine hepatoma H22; 1.00 mmol/kg ig once a day 7 d) | Carmine contents (Murine hepatoma H22; 1.00 mmol/kg ig once a day 7 d) | VI (vascular index, mg carmine red per g tumor tissue) (Murine hepatoma H22; 1.00 mmol/kg ig once a day 7 d) | IR (%) of tumor growth (Murine hepatoma H22; 1.35 mmol/kg ig once a day 7 d) | Carmine contents (Murine hepatoma H22; 1.35 mmol/kg ig once a day 7 d) | VI (vascular index, mg carmine red per g tumor tissue) (Murine hepatoma H22; 1.35 mmol/kg ig once a day 7 d) | Inhibition against angiogenesis in H22 tumor (in words) (Murine hepatoma H22) | Inhibition against the growth of mouse hepatoma H22 (in words) (Murine hepatoma H22) | Mortality(%) (mice) | Deaths (mice) | IR (%) of S180 sarcoma growth (S180 murine sarcoma; 0.60 mmol/kg ig once a day 9 d) [%] | IR (%) of S180 sarcoma growth (S180 murine sarcoma; 0.85 mmol/kg ig once a day 9 d) | IR (%) of S180 sarcoma growth (S180 murine sarcoma; 1.10 mmol/kg ig once a day 9 d) | Average invasion and metastasis grade (S180 murine sarcoma; 0.60 mmol/kg) | Average invasion and metastasis grade (S180 murine sarcoma; 0.85 mmol/kg) | Average invasion and metastasis grade (S180 murine sarcoma; [1]) | Mouse Number Grade 0 (S180 murine sarcoma; 0.60 mmol/kg) | further results
1 | C=C1CCC2C(C)(CO)C(O)CCC2(C)C1C=CC1=CC(=Cc2ccc(Cl)cc2)OC1=O (stereo not shown) [Compound 2, 15-p-chlorobenzylidene-14-deoxy-11,12-didehydro-andrographolide] | 15.69% | 4.63 ± 2.93 | 4.42 ± 1.58 mg/g | 49.63**^ΔΔ % | 2.59 ± 1.68*^Δ | 3.89 ± 0.89 mg/g | 50.37**^ΔΔ % | 1.90 ± 1.39**^ΔΔ | 3.14 ± 1.69*^Δ mg/g | significant inhibition | significant inhibition | 0 | 0 | 30.12 ± 8.00 | 53.38 ± 6.83**^ΔΔ % | 45.16 ± 5.58**^ΔΔ % | 2.00 | 0.00 | 0.00 | 0 | Mouse Number Grade 0 (S180 murine sarcoma; 0.85 mmol/kg): 12; Mouse Number Grade 0 (S180 murine sarcoma; [1]): 12; Mouse Number Grade 1 (S180 murine sarcoma; 0.60 mmol/kg): 0; Mouse Number Grade 1 (S180 murine sarcoma; 0.85 mmol/kg): 0; Mouse Number Grade 1 (S180 murine sarcoma; [1]): 0; Mouse Number Grade 2 (S180 murine sarcoma; 0.60 mmol/kg): 12; Mouse Number Grade 2 (S180 murine sarcoma; 0.85 mmol/kg): 0; Mouse Number Grade 2 (S180 murine sarcoma; [1]): 0; Mouse Number Grade 3 (S180 murine sarcoma; 0.60 mmol/kg): 0; Mouse Number Grade 3 (S180 murine sarcoma; 0.85 mmol/kg): 0; Mouse Number Grade 3 (S180 murine sarcoma; [1]): 0; Mouse Number Grade 4 (S180 murine sarcoma; 0.60 mmol/kg): 0; Mouse Number Grade 4 (S180 murine sarcoma; 0.85 mmol/kg): 0; Mouse Number Grade 4 (S180 murine sarcoma; [1]): 0; In vivo antitumor effect on S180 compared with parent compound (in words) (S180 murine sarcoma): significantly stronger than that of the parent compound; Inhibitory effect on invasion and metastasis of S180 tumor tissues (in words) (S180 murine sarcoma): strong inhibitory effect
2 | C=C1CCC2C(C)(COC(=O)c3cccnc3)C(OC(=O)c3cccnc3)CCC2(C)C1C=CC1=CC(=Cc2ccc(Cl)cc2)OC1=O (stereo not shown) [Compound 3, 15-p-chlorobenzylidene-14-deoxy-11,12-didehydro-3,19-dinicotinate andrographolide] | 37.89* % | 2.26 ± 1.97*^Δ | 3.60 ± 1.86*^Δ mg/g | 41.26*^ΔΔ % | 1.88 ± 1.26**^ΔΔ | 3.30 ± 1.43*^Δ mg/g | 49.27**^ΔΔ % | 2.14 ± 1.42*^Δ | 3.88 ± 1.40 mg/g | significant inhibition | significant inhibition | 0 | 0 | 18.89 ± 3.68 | 20.21 ± 4.37 % | 24.44 ± 6.30 % | 1.08 | 1.25 | 0.42 | 4 | Toxic symptoms observed (mice): No apparent toxic symptoms; IL-1β in serum (IL-1β; 0.85 mmol/kg ig 24 d): 30.76 ± 3.25 pg/mL; IL-1β in serum (IL-1β; 1.10 mmol/kg ig 24 d): 17.86 ± 3.41 pg/mL; IR (%) of S180 sarcoma growth (S180 murine sarcoma; 1.35 mmol/kg ig once a day 9 d): 31.21 ± 5.96**^Δ %; Mouse Number Grade 0 (S180 murine sarcoma; 0.85 mmol/kg): 5; Mouse Number Grade 0 (S180 murine sarcoma; [1]): 8; Mouse Number Grade 1 (S180 murine sarcoma; 0.60 mmol/kg): 5; Mouse Number Grade 1 (S180 murine sarcoma; 0.85 mmol/kg): 2; Mouse Number Grade 1 (S180 murine sarcoma; [1]): 3; Mouse Number Grade 2 (S180 murine sarcoma; 0.60 mmol/kg): 1; Mouse Number Grade 2 (S180 murine sarcoma; 0.85 mmol/kg): 2; Mouse Number Grade 2 (S180 murine sarcoma; [1]): 1; Mouse Number Grade 3 (S180 murine sarcoma; 0.60 mmol/kg): 2; Mouse Number Grade 3 (S180 murine sarcoma; 0.85 mmol/kg): 3; Mouse Number Grade 3 (S180 murine sarcoma; [1]): 0; Mouse Number Grade 4 (S180 murine sarcoma; 0.60 mmol/kg): 0; Mouse Number Grade 4 (S180 murine sarcoma; 0.85 mmol/kg): 0; Mouse Number Grade 4 (S180 murine sarcoma; [1]): 0; In vivo antitumor effect on S180 compared with parent compound (in words) (S180 murine sarcoma): significantly stronger than that of the parent compound; Inhibitory effect on invasion and metastasis of S180 tumor tissues (in words) (S180 murine sarcoma): strong inhibitory effect

— patent publication US9198894B2, “Uses of 15-benzylidene-14-deoxy-11,12-didehydroandrographolide derivatives in the preparation of antineoplastic drugs” (Zhengzhou University, priority 2010, dated 2015)
